Common to all, as to type: in vivo, rat
Series [1] deals with Sprague-Dawley (SPD) rats. Briefly: Elevated plus maze (EPM) after 83 days chronic feeding, Study 1. To be noted: compared to control (SD). The procedure:
Generally, exogenous ketone supplements were tested and fed chronically for 83 days and administered sub-chronically for 7 days by gavage, followed by assessment of anxiety measures on elevated plus maze (EPM) on 97 male SPD rats.
In order to familiarize the animals to the intragastric gavage method, tap water was gavaged for 5 days before ketone supplementation. A total of 48 male SPD rats were fed for 83 days with either standard rodent chow (SD)+water application (˜25 g/kg b.w. water/day) (SD/control group; n=9) or SD+ketone supplementation by gavage.
(§1) EPM (COULBOURN Instruments) was used to assess anxiety-related behavior of the rats after 83 days of chronic feeding or after 7 days of oral gavage. EPM experiments were carried out under non-stressful conditions (in a dimly lit and quiet room) between 12.00 and 14.00 hours.
(§2) The rats were transferred in their home cage to the experimental room 30 min prior to beginning the experiment. Briefly, rats were placed in the intersection of the four arms of the EPM, facing the open arm opposite to where the experimenter was and their behavior was recorded for 5 minutes. The amount of time spent and number of entries made on the open arms, closed arms and the center zones were recorded. Latency to entry into the closed arms and the distance travelled in each zones was also measured in chronically treated SPD rats. Notes were made on other ethological measures such as number of rears, head dips, fecal boli, and freezing, or stretched-attend postures.
(§3) At the end of the 5-minute test the rats were removed from the maze and placed back into their home cage. The maze was cleaned with 70% alcohol and after it with tap water and dried with paper towel between rats. The primary method for data collection was a video-tracking system with computer interface and video camera (SMART V3.0 PLATFORM, PANLAB, Harvard Apparatus, USA), to automatically collect behavioral data in SPD rats. A blinded observer was present in the testing room separated from the maze by a curtain, and manually collected EPM data in both SPD and WAG/Rij animals at the end of treatments.
All data are presented as the mean±standard error of the mean (SEM). The effects of ketone supplementations on anxiety level were compared, as well as on blood βHB and glucose levels to control or/and baseline levels. Data analysis was performed using GraphPad PRISM version 6.0a. Results were considered significant when p<0.05. Significance was determined by unpaired t-test. Blood ketone, blood glucose, and body weight change were compared using a two-way ANOVA with Tukey's multiple comparisons test and unpaired t-test.

Series [2] concerns WAG/Rij rats. Briefly: EPM after 7 days oral gavage, WAG/Rij rats, Study 1. To be noted: 7 days gavage ~2.5 g/kg b.w./day, compared to control (SD). On the procedure: To extend the results and ensure that the results were not strain dependent, exogenous ketone supplements were tested on both SPD rats and Wistar Albino Glaxo/Rijswijk (WAG/Rij) rats for 7 days by gavage (5 g/kg/day and 2.5 g/kg/day, respectively, SD+KE and SD+KS), as WAG/Rij rats show reduced activity of GABAergic system (Luhmann H J, et al. Impairment of intracortical GABAergic inhibition in a rat model of absence epilepsy. Epilepsy Res. 1995 September; 22(1):43-51).
as §1, §2, §3
Results were considered significant when p<0.05. Significance was determined by unpaired t-test.

Series [3] is described as follows: Blood βHB and glucose ~40 min after single dose, 1 year old SPD rats, Study 2. The conditions noted are these: right after 5 min EPM test, compared to control group. On the procedure: One year old SPD rats were gavaged and EPM test was performed 30 min after administration. Treatment groups BD, KE, KEMCT, KSMCT, KEKS.
Another study was carried out using substantially similar methodologies and procedures as in Study 1, specifically using the EPM test to evaluate anxiety-related behavior in 1-year old SD rats when administered ketone supplementation versus control.

The subject of series [4] is SPD rats. Briefly: EPM after 83 days chronic feeding, SPD rats, Study 3. To be noted: chronic feeding 83 days, compared to control (SD). The procedure:
(§4) Generally, exogenous ketone supplementation was tested by adding to food and feeding chronically for 83 days in SPD rats and administering sub-chronically for 7 days in both rat models by daily intragastric gavage bolus, followed by assessment of anxiety measures on EPM. The groups included standard diet (SD) or SD+ketone supplementation.
(§5) EPM (Coulbourn Instruments) was used to assess anxiety-related behavior of the rats after 83 days of chronic feeding or after 7 days of oral gavage. EPM experiments were carried out under non-stress conditions (in dimly lit and quiet room) between 12.00 and 14.00 hours.
(§6) The rats were transferred in their home cage to the experimental room 30 min prior to beginning the experiment. Briefly, rats were placed in the intersection of the four arms of the EPM, facing the open arm opposite to where the experimenter was and their behavior was recorded for 5 minutes. The amount of time spent and number of entries made on the open arms, closed arms and the center zones were video recorded. Latency to entry into the closed arms and the distance travelled in each zones was also measured in chronically treated SPD rats. […] At the end of the 5-minute test, the rats were removed from the maze and placed back into their home cage. The maze was cleaned with 70% alcohol and after it with tap water and dried with paper towel between rats. The primary method for data collection was a video-tracking system with computer interface and video camera (SMART V3.0 PLATFORM, Panlab, Harvard Apparatus, USA), to automatically collect behavioral data in SPD rats. A blinded observer was present in the testing room separated from the maze by a curtain, and collected EPM data in both SPD and WAG/Rij animals.
(§7) Results were considered significant when p<0.05.

Series [5] concerns SPD rats. Briefly: EPM after 7 days oral gavage, SPD rats, Study 3. To be noted: 7 days gavage 5 g/kg b.w./day. On the procedure:
as §4, §5, §6, §7

The subject of series [6] is WAG/Rij rats. Briefly: EPM after 7 days oral gavage, WAG/Rij rats, Study 3. The conditions noted are these: 7 days gavage ~2.5 g/kg b.w./day. On the procedure: as §4, §5
as §6, with “The primary method for data collection was a video-tracking system with computer interface and video camera (SMART V3.0 PLATFORM, Panlab, Harvard Apparatus, USA), to automatically collect behavioral data in SPD rats. A blinded observer was present in the testing room separated from the maze by a curtain, and collected EPM data in both SPD and WAG/Rij animals.” left out

Series [7] in a line: Body weight, SPD rats, Study 3. To be noted: compared to control. On the procedure:
The body weight of all animals was recorded before the first ketone treatment (before) and on the last day of the ketone treatment (after).
as §7

The nature of series [8]: Blood βHB and glucose compared between the two animal models, Study 3. The conditions noted are these: after sub-chronic ketone supplementation (7 days; ~2.5 vs ~5 g/kg b.w./day).
Source text: as §7

Turning to `CC(=O)CC(=O)OCCC(C)OC(=O)CC(C)=O` (centres unmarked) [KE, 1,3-butanediol-acetoacetate diester], in series [1] (chronic feeding 83 days), the “Distance traveled in the closed arms” value is “significantly less” and the “Latency to first entrance of closed arms” value is given as “significantly greater”. For the same compound, in series [2], the “Time spent in the center” value is listed as “more time”. For the same compound, in series [3], the Blood glucose level entry was “significantly lower”. Besides, in series [4], the “Distance traveled in the closed arms” value is listed as “significantly less” and the “Time spent in the closed arms” value is given as “significantly less”. Further, in series [5] (compared to control), the “Entries to the closed arms” value is recorded as “less frequent”, the “Time spent in the center” value was “decreased” and the “Time spent in the open arms” value is “increased”. Moreover, the “Entries to open arms” value in series [6] (compared to control) is on record as “less entries”. The “Time spent in the center” value in series [6] (compared to control (SD)) is recorded as “more time”. Moreover, in series [7] (after 7 days of treatment), the Body weight result is “lower”. For the same compound, the Body weight entry in series [7] (after chronic feeding) is “lower”. For the same compound, the “βHB levels in WAG/Rij rats compared to SPD rats” value in series [8] was “Higher”.

Turning to Na^+/K^+-βHB mineral salt [KS], in series [1] (chronic feeding 83 days (~25 g/kg b.w./day; LKE ~10)), the “Time spent in the open arms” value is on record as “significantly more”. In series [1] (chronic feeding 83 days), the “Distance traveled in the center” value is “more”, the “Distance traveled in the closed arms” value is reported as “significantly less”, the “Distance traveled in the open arms” value was “significantly greater” and the “Latency to first entrance of closed arms” value is “significantly greater”. In series [1] (chronic feeding 83 days), the “Time spent in the center” value was “significantly more” and the “Time spent in the closed arms” value is “significantly less”. Besides, in series [2], the “Entries to the closed arms” value is given as “less frequent”, the “Time spent in the closed arms” value is “less time” and the “Time spent in the open arms” value is given as “more time”. In series [4], the “Distance traveled in the center” value is “more”, the “Distance traveled in the closed arms” value is on record as “significantly less”, the “Distance traveled in the open arms” value was “significantly greater” and the “Time spent in the center” value is reported as “significantly more”. Moreover, the “Time spent in the closed arms” value in series [4] was “significantly less”. In addition, in series [5] (compared to control), the “Entries to the closed arms” value is recorded as “less frequent” and the “Time spent in the center” value was “decreased”. For the same compound, in series [5] (compared to control (SD)), the “Entries to the center” value is given as “fewer times”.

The values above are taken from patent publication US10980764B1, “Exogenous ketone supplements for reducing anxiety-related behavior” (priority 2016, dated 2021).
